One block for each compound: values may come before it.
How the values were obtained:
[1] = target: T1, Oxysterols receptor LXR-alpha (Homo sapiens, UniProt Q13133); format: functional
T1 sequence (Q13133 whole entry): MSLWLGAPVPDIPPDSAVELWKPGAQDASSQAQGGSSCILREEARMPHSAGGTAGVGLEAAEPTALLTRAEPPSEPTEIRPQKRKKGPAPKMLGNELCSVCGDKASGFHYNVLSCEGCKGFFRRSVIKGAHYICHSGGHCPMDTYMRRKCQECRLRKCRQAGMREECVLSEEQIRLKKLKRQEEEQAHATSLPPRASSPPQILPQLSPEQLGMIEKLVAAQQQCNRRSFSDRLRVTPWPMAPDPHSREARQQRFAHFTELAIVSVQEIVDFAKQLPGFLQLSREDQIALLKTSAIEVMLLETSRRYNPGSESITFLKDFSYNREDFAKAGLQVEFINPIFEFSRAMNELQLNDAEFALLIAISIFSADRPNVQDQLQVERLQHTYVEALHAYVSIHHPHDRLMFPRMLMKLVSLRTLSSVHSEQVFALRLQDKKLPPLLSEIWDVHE

[2] = target: T2, Retinoic acid receptor gamma (Homo sapiens, UniProt P13631); format: functional, cell-based
T2 sequence (P13631 whole entry): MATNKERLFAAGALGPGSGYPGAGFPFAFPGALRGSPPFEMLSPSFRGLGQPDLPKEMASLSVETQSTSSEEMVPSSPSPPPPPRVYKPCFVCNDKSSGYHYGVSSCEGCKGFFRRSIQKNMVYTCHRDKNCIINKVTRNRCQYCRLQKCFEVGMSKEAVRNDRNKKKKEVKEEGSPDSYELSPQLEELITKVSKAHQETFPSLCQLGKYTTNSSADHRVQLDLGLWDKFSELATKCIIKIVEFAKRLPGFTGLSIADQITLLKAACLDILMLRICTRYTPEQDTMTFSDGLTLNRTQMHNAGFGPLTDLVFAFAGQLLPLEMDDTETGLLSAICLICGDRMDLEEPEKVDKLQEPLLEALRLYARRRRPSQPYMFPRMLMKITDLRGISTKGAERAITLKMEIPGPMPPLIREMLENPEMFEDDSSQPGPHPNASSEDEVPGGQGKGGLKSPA

[3] = target: T3, Muscarinic acetylcholine receptor M1 (Homo sapiens, UniProt P11229); format: functional, cell-based
T3 sequence (P11229 whole entry): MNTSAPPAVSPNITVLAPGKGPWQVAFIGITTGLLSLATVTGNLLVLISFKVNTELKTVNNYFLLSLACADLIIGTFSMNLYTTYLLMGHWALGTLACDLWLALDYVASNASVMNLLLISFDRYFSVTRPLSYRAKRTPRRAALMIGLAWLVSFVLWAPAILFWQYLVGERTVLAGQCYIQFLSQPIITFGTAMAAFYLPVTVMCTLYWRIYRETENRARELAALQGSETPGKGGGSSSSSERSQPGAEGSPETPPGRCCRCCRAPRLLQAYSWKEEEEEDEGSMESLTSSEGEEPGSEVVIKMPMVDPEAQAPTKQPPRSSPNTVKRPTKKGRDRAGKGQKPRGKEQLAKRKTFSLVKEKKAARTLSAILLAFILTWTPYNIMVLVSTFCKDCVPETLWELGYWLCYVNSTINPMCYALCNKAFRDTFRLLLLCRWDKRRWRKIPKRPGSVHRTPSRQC

[4] = target: T4, Prostaglandin G/H synthase 1 (Rattus norvegicus, UniProt Q63921); format: functional
T4 sequence (Q63921 whole entry): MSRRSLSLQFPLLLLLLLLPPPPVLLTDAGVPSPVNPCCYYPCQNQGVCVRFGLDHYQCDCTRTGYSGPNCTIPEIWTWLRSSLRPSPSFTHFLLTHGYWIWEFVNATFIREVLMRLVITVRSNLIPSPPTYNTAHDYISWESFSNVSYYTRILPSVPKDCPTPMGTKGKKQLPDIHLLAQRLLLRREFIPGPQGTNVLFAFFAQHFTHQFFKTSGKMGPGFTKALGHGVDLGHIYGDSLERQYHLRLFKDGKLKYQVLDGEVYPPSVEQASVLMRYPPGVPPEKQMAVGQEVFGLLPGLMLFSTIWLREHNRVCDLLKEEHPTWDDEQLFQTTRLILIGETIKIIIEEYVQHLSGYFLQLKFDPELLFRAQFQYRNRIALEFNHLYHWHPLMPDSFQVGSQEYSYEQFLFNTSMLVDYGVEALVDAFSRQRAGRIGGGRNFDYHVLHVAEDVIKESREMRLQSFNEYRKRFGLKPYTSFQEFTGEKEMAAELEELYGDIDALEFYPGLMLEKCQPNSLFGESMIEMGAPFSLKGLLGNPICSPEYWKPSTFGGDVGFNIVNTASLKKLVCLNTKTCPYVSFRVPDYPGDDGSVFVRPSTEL

[5] = target: T3, Muscarinic acetylcholine receptor M1; format: functional, cell-based; remark: listed apart in the source
Histamine H1 receptor [6] = target: T5, Histamine H1 receptor (Homo sapiens, UniProt P35367); format: functional, cell-based
T5 sequence (P35367 whole entry): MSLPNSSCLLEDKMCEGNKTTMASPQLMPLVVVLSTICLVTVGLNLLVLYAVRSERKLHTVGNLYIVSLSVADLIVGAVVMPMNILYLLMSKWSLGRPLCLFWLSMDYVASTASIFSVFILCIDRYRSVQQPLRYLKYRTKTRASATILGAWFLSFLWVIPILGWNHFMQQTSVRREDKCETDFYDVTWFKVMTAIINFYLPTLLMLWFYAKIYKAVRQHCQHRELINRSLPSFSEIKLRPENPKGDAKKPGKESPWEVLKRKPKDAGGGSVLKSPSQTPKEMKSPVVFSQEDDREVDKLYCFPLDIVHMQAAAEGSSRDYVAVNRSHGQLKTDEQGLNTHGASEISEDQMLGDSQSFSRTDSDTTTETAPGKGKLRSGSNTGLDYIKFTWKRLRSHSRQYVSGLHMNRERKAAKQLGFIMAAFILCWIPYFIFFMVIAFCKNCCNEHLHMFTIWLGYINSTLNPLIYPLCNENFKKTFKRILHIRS

Histamine H1 receptor [7] = target: T5, Histamine H1 receptor; format: functional, cell-based; remark: listed apart in the source
[8] = target: 5-hydroxytryptamine receptor 2B (Homo sapiens, UniProt P41595)
5-hydroxytryptamine receptor 2B, sequence (P41595 whole entry): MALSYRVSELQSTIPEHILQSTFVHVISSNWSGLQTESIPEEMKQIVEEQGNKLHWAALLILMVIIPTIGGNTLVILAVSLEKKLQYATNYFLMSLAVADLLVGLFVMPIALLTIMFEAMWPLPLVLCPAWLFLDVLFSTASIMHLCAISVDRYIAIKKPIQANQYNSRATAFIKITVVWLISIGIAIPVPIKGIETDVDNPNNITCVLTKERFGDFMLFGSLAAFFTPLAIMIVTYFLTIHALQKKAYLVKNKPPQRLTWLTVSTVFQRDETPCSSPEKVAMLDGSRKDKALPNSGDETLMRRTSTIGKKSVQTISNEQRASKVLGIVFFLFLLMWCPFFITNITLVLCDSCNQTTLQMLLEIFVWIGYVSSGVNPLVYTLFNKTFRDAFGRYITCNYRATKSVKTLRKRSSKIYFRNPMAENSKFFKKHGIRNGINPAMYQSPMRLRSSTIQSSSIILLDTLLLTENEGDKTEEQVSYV

[9] = target: T3, Muscarinic acetylcholine receptor M1
[10] = target: T6, Type-1 angiotensin II receptor (Homo sapiens, UniProt P30556)
T6 sequence (P30556 whole entry): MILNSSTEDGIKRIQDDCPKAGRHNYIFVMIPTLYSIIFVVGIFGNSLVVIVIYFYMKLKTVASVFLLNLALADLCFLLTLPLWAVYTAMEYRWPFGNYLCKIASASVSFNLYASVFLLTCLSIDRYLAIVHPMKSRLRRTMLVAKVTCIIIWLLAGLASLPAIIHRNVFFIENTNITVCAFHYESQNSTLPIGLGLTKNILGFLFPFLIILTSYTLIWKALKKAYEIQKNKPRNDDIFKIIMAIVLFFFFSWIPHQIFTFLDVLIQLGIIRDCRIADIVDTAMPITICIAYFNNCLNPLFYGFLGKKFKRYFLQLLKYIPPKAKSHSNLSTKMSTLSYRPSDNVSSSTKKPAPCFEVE
Further: assay procedure not described here.

Compound: Cc1c(C(=O)NN2CCCCC2)nn(-c2ccc(Cl)cc2Cl)c1-c1ccc(Cl)cc1 [RIMONABANT]
AC50 [1]: > 30 µM
AC50 [2]: > 30 µM

Compound: O=C(O[C@H]1C[C@H]2CC[C@@H](C1)[N+]21CCCC1)C(O)(c1ccccc1)c1ccccc1 [TROSPIUM]
AC50 [3]: 2.7 nM
AC50 [4]: > 30 µM
AC50 [5]: > 30 µM

AC50 (Histamine H1 receptor [6]): > 30 µM
AC50 (Histamine H1 receptor [7]): > 30 µM
Compound: Nc1nc(NC2CC2)c2ncn([C@H]3C=C[C@@H](CO)C3)c2n1 [ABACAVIR]

AC50 [1]: > 30 µM
AC50 [2]: > 30 µM
Compound: CN1C(C(=O)Nc2ccccn2)=C(O)c2sc(Cl)cc2S1(=O)=O [LORNOXICAM]

AC50 [8]: 8.4 nM
Compound: CCCN1C[C@H](CSC)C[C@@H]2c3cccc4[nH]cc(c34)C[C@H]21 [PERGOLIDE]

Compound: CCc1oc2ccccc2c1C(=O)c1cc(I)c(O)c(I)c1 [BENZIODARONE]
AC50 [9]: > 30 µM

Compound: O=C(OCC(O)CO)c1ccccc1Nc1ccnc2cc(Cl)ccc12 (configuration not stated) [GLAFENINE]
AC50 [10]: > 100 µM

— ChEMBL document CHEMBL5291721, “A preclinical secondary pharmacology resource illuminates target-adverse drug reaction associations of marketed drugs” (Nat Commun, 2023)
